Patent US20050281890A1 (priority 2004, published 2005)
Read-outs that look alike come from different tables or passages of the source.

Tests used:
[1] = tested on: focal adhesion kinase (FAK); settings: HMEC-1 microvascular endothelial cells; various doses, 0.1 mM for kinetics
Method: Human microvascular endothelial cells (HMEC-1) were treated with H2O2 for indicated dose and duration. Phosphorylation of FAK was detected using Western blot and phosphorylation site-specific antibodies against FAK. Native FAK or β-actin was blotted to show equal loading. A. Effect of various dose of H2O2 treatment on phosphorylation (Ty 925) state of FAK. B. Kinetics of site-specific activation phophorylation of FAK in HMEC cells following H2O2 (0.1 mM) treatment.
Human microvascular endothelial cells (HMEC-1) were treated with H2O2 for indicated dose and duration. Phosphorylation of FAK was detected using Western blot and phosphorylation site-specific antibodies against FAK. Native FAK or β-actin was blotted to show equal loading.

wound blood flow = settings: 1.25 micromole/wound, days 0-4, once daily; post-heal tissue; vs placebo saline
Method: (§1) FIG. 4. […] Paired excisional wounds (FIG. 2) were either treated with placebo saline or H2O2 (1.25 micromole/wound, days0-4, once daily). Wound-edge tissue was collected at indicated times after wounding. A. Ribonuclease protection assay (RPA) showing kinetics of angiogenesis-related mRNA expression in a placebo-treated wound. […] C. Blood flow imaging of wounds was performed non-invasively using a Laser Doppler blood flow imaging device. Images reflecting the blood flow (right panel) and a digital photo (region of interest; left panel) from post-heal tissue are shown. Data i.e., mean±SD of the blood flow is presented (bar graph). The mean represents the arithmetic mean of all valid blood flow values for pixels within the region of interest.
(§2) Paired excisional wounds were either treated with placebo saline or H2O2 (1.25 micromole/wound, days 0-4, once daily). Wound-edge tissue was collected at indicated times after wounding.
Images reflecting the blood flow (right panel) and a digital photo (region of interest; left panel) from post-heal tissue are shown. […] The mean represents the arithmetic mean of all valid blood flow values for pixels within the region of interest.

[2] = tested on: focal adhesion kinase (FAK); settings: wound-edge tissue, 1.25 micromole/wound, 30 minutes after wounding
Method: Human microvascular endothelial cells (HMEC-1) were treated with H2O2 for indicated dose and duration. Phosphorylation of FAK was detected using Western blot and phosphorylation site-specific antibodies against FAK. Native FAK or β-actin was blotted to show equal loading. […] B. Kinetics of site-specific activation phophorylation of FAK in HMEC cells following H2O2 (0.1 mM) treatment. […] Paired excisional wounds (FIG. 2) were either treated with placebo saline or H2O2 (1.25 micromole/wound). Wound-edge tissue was collected 30 min after wounding. FAK phosphorylation in wound edge tissue was determined using Western blot. Data from three animals (#1-#3) are shown.
In FIG. 5C, paired excisional wounds were either treated with placebo saline or H2O2 (1.25 micromole/wound). Wound-edge tissue was collected 30 minutes after wounding. FAK phosphorylation in wound edge tissue was determined using Western blot. Data from three animals (#1-#3) are shown.

VEGF mRNA = settings: 1.25 micromole/wound, once daily, days 0-4; wound-edge tissue
Method: as §1, §2

Flt-1 mRNA = settings: 1.25 micromole/wound, once daily, days 0-4; wound-edge tissue
Method: as §1, §2

CD31 = settings: 1.25 micromole/wound, days 0-4; day 8 post-wounding; vs control
Method: as §1, §2

keratin 14 = settings: p47phox knockout mice; 1.25 micromoles/wound, days 0-4; day 18 post-wounding, after closure
Method: Two excisional wounds (FIG. 2) were-laced on the dorsal skin of 8 wk old C57BL/6, MCP-1 or p47phox KO mice. Each of the two wounds was treated with either saline or H2O2 (1.25 micromoles/wound; days 0-4). […] C. […] D. Keratin 14 (green fluorescence) expression in skin of p47phox KO mice harvested from wound sites after closure on day 18 post-wounding.
Briefly, two excisional wounds were placed on the dorsal skin of eight-week-old C57BL/6, MCP-1 or p47^phox knockout mice. Each of the two wounds was treated with either saline or H2O2 (1.25 micromoles/wound; days 0-4).

[3] = tested on: 8×16-mm full-thickness excisional wounds; settings: for wound closure: p<0.05
Method: FIG. 3. […] Two 8×16 mm full-thickness excisional wounds (inset) were placed on the dorsal skin of C57BL/6 male mice (8 wk old). […] For determination of surface microflora, wounds (treated with either 1.25 micromole H2O2/wound, open bar, or saline, closed bar) were swabbed (24-48 h post wounding) for 20 sec with an alginate-tipped applicator. Quantitative assessment of surface bacterial load was performed. For deep tissue wound microflora, 48 h after wounding eschar tissue was removed, wound bed tissue underneath eschar was sampled and quantitative assessment of bacterial load was performed. Values shown represent mean±SD of CFU of four observations. C.
Briefly, two 8×16-mm full-thickness excisional wounds (FIG. 3, insets) were placed on the dorsal skin of C57BL/6 male mice (8 weeks old). Each of the two wounds was topically treated either with H2O2 or saline.

## OO [H2O2, hydrogen peroxide]
[1]
  phosphorylation of FAK: Induced Phosphorylation
Wound blood flow
  blood flow: increased blood flow
[2]
  phosphorylation of FAK: Induced Phosphorylation
VEGF mRNA
  wound-induced VEGF mRNA expression: further augmented
Flt-1 mRNA
  wound-induced Flt-1 mRNA expression: further augmented
CD31
  vascularization (CD31 stain): better vascularization
Keratin 14
  keratin 14 expression: comparable to normal skin
[3]; 62.5 micromoles/wound (0.025 ml of 7.5% solution), once on day 0
  tissue damage / survival: caused necrotic tissue damage and severe injury, leading to death of the mice
[3]; high dose 25 micromoles/wound (0.025 ml of 3% solution), once daily days 0-4, compared to low dose 1.25 micromoles/wound
  wound closure: adversely affected closure
[3]; low-dose 1.25 micromoles/wound (0.025 ml of 0.15% solution), topical, once daily, days 0-4, vs placebo saline side
  wound closure: facilitated closure moderately
